One data set has as its system P388 ascites tumor. The experiment in a line: Effect on P388 ascites tumor (increased life span). Format: in vivo. The settings on record: P388, ip, intraperitoneal, 24 hours after implantation, male CDF1 mouse. How it is done:
Effect on P388 ascites tumor:
P388 tumor cells (10^6 cells) were implanted intraperitoneally into a DBA/2 mouse and the cells were collected from the ascitic fluid of the animal 7 days after the implantation. The cells were ashed once with sterilized physiological saline solution and then suspended in a sterilized physiological saline solution to prepare a cell suspension containing 5×10^6 cells/ml. The suspension (0.2 ml) was intraperitoneally inoculated into a male CDF1 mouse aged 6 weeks. A test compound was dissolved in physiological saline solution and intraperitoneally administered to the animal 24 hours after implantation of the tumor cells. One test group comprised 5 mice. The mean survival time (days) of a test group which received a test compound at a specified concentration was calculated as T from survival days of animals in the group. ON the other hand, the mean survival time (days) of the non-administered group (C) was obtained in the same manner, and the increased life span (ILS %) was calculated as [(T-C)/C]×100 (%).

The subject of data set [1] is human cancer cells (HeLaS3). The experiment in a line: Inhibitory effect on growth of human cancer cells (HeLaS3). It counts as cell-based. The settings on record: Homo sapiens, HeLa S3, 72 hours at 37° C., Neutral Red staining, 550 nm, read-out: IC50. How it is done: Inhibitory effect on growth of human cancer cells (HeLaS3):
HeLaS, cells were suspended in a medium comprising MEM medium (Nissui Pharmaceutical Co., Ltd.) and 2 mM glutamine (hereinafter referred to as Medium A) to a concentration of 3×10^4 cells/ml. The cell suspension thus prepared was put into wells of a 96-well microtiter plate in an amount of 0.1 ml/well. The cells on the plate were incubated in a CO2 -incubater at 37° C. for 20 hours, and 0.05 ml of a sample containing a test compound and appropriately diluted with Medium A was added to each well. The cells were further incubated in the CO2 -incubater at 37° C. for 72 hours. After the culture supernatant was removed, a medium comprising Medium A and 0.02% Neutral Red was added to the residue in an amount of 0.1 ml/well, followed by incubation at 37° C. for one hour in the CO2 -incubater, whereby the cells were stained. The culture supernatant was removed and the residue was washed once with physiological saline solution. The pigment was extracted with 0.001 N-HCl/30%-ethanol, and the absorbance was determined at 550 nm with a microplate reader. The absorbance determined for intact cells was compared with that for the cells treated with the test compound of a known concentration, and the concentration of the test compound for inhibiting 50% growth of the cells (IC50) was calculated.

Data set [2] can be described thus: Acute toxicity (LD50), single intravenous administration to male ddy mice. The settings on record: mouse, in vivo, 14 days observation, Probit's method. How it is done:
A test compound was administered intravenously once to male ddy mice. One test group comprised ten mice. […] LD50 was calculated from the death rate of each group in accordance with Probit's method.

Among the data in patent publication US5079358A, “6H-pyrazolo-[4,5,1-d,e]acridin-6-one derivatives having anit-tumor activity” (Kyowa Hakko Kogyo Co., Ltd., priority 1988, dated 1992) are ILS, IC50 and LD50 values, retold here.

Converted amounts (≈) assume the structure as drawn. A value given as a limit tells only on which side of the number the result lay.

For orientation: ILS means how much longer treated animals lived than controls. A high value points to a large benefit in survival. What is called IC50 is the concentration that inhibits the measured activity by half. Turning to `COc1cccc2c1c(=O)c1c(NCCCN)ccc3c(CNCCCN)nn2c31` [Compound 26, 5-(3-Aminopropyl)amino-2-(3-aminopropyl)aminomethyl-7-methoxy-6H-pyrazolo[4,5,1-d,e]acridin-6-one], the ILS at 25 mg/kg in the data set on P388 ascites tumor was determined as 28%. In data set [1], the IC50 was 0.22 µg/mL (≈ 0.539 µM).

One may read the LD50 as the dose expected to kill half of the subjects tested. Read a high LD50 as a less toxic substance. As for `NCCNCc1nn2c3cccc(O)c3c(=O)c3c(NCCN)ccc1c32` [Compound 28, 5-(2-Aminoethyl)amino-2-(2-aminoethyl)aminomethyl-7-hydroxy-6H-pyrazolo[4,5,1-d,e]acridin-6-one], in the data set on P388 ascites tumor, the ILS at 12.5 mg/kg is greater than 154%. In data set [2], this compound yielded a median lethal dose (LD50) at 336 h of 15.7 mg/kg.

In the case of `NCCCNCc1nn2c3cccc(O)c3c(=O)c3c(NCCCN)ccc1c32` [Compound 29, 5-(3-Aminopropyl)amino-2-(3-aminopropyl)aminomethyl-7-hydroxy-6H-pyrazolo[4,5,1-d,e]acridin-6-one], the increase in lifespan (ILS) at 12.5 mg/kg in the data set with P388 ascites tumor is greater than 121%. Moreover, the IC50 in data set [1] was 0.014 µg/mL (≈ 0.0355 µM).

Turning to `NCCNCc1nn2c3cccc(O)c3c(=O)c3c(NCCNCCO)ccc1c32` [Compound 46, 2-(2-Aminoethyl)aminomethyl-7-hydroxy-5-[2-(2-hydroxyethylamino)ethyl]amino-6H-pyrazolo[4,5,1-d,e]acridin-6-one], the increase in life span (ILS) at 25 mg/kg in the data set with P388 ascites tumor was greater than 156%. For the same compound, the IC50 in data set [1] was determined as 0.003 µg/mL (≈ 0.00731 µM).

Take `NCCNCCNc1ccc2c(CNCCN)nn3c4cccc(O)c4c(=O)c1c23` [Compound 48, 5-[2-(2-Aminoethylamino)ethyl]amino-2-(2-aminoethyl)aminomethyl-7-hydroxy-6H-pyrazolo[4,5,1-d,e]acridin-6-one]: the increase in life span (ILS) at 50 mg/kg in the data set with P388 ascites tumor (dose 50 mg/kg) was greater than 200%. In addition, the half-inhibitory concentration (IC50) in data set [1] was found to be 0.0026 µg/mL (≈ 0.00635 µM).

`CN(C)CCNc1ccc2c(CN(CCO)CCO)nn3c4cccc(O)c4c(=O)c1c23` [Compound 51, 2-Bis(2-hydroxyethyl)aminomethyl-5-(2-dimethylaminoethyl)amino-7-hydroxy-6H-pyrazolo[4,5,1-d,e]acridin-6-one]: the increase in life span (ILS) at 25 mg/kg in the data set with P388 ascites tumor is greater than 186%. Also, the median lethal dose (LD50) at 336 h in data set [2] came out at 15.7 mg/kg.

`NCCNc1ccc2c(CN(CCO)CCO)nn3c4cccc(O)c4c(=O)c1c23` [Compound 53, 5-(2-Aminoethyl)amino-2-bis(2-hydroxyethyl)aminomethyl-7-hydroxy-6H-pyrazolo[4,5,1-d,e]acridin-6-one] came in with an ILS at 25 mg/kg with P388 ascites tumor greater than 100%. In data set [2], the LD50 at 336 h turned out to be 25 mg/kg.

On to `O=c1c2c(O)cccc2n2nc(CNCCN3CCOCC3)c3ccc(NCCN4CCOCC4)c1c32` [Compound 56, 7-Hydroxy-5-(2-morpholinoethyl)amino-2-(2-morpholinoethyl)aminomethyl-6H-pyrazolo[4,5,1-d,e]acridin-6-one], for which the increase in lifespan (ILS) at 100 mg/kg in the data set on P388 ascites tumor (dose 100 mg/kg) is 121%. Further, the IC50 in data set [1] came out at 0.26 µg/mL (≈ 0.513 µM).
